Laboratory results from patent US11180496B2 (Daewoong Pharmaceutical Co., Ltd., priority 2017, dated 2021).

Experiments:
ITK = target: T1, ITK (Homo sapiens, UniProt Q08881); test: ITK inhibitory activity, ADP-Glo + ITK Kinase enzyme system kit (Promega); assay type: biochemical; conditions: ITK enzyme 0.4 ng/uL, ATP 25 uM, 15 min preincubation, luminescence, duplicate
T1 construct: purchased Promega
T1 sequence (Q08881 1-620): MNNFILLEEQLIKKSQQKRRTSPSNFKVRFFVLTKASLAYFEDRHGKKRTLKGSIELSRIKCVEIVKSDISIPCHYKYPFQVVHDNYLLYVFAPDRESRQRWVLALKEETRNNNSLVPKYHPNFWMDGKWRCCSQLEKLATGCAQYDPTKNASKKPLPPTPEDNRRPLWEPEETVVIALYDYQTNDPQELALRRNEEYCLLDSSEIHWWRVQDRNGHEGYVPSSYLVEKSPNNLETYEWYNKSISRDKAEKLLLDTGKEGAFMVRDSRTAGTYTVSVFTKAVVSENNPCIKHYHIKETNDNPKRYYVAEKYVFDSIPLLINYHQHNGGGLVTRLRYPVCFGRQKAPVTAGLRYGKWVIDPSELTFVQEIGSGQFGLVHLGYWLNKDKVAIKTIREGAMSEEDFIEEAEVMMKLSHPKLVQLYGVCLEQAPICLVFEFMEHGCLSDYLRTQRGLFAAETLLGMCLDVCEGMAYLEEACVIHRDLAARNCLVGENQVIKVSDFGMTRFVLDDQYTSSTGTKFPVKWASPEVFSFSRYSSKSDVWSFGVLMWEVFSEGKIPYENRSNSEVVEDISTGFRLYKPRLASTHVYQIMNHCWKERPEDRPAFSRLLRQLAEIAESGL
Protocol: (§1) The inhibitory activity against BTK and ITK of the compounds prepared in Examples above were measured as follows.
(§2) The inhibitory activity against ITK was evaluated using ‘ADP-Glo™+ITK Kinase enzyme system’ kit from Promega. […] 5 uL of substrate and 5 uL of ATP prepared at a final concentration of 25 uM were added to all wells of the plate after completion of the reaction, and allowed to react at 30° C. for 1 hour. All wells of the plate after completion of the reaction were treated with 25 uL of ADP-Glo™ reagent and reacted at 30° C. for 40 minutes. Then, 50 uL of the kinase detection buffer was applied to all wells of the plate, and then the light was blocked and reacted at 30° C. for 30 minutes. For the plate for which all reactions were completed, the luminescence was measured and the results were calculated. The evaluation was performed in duplicate. The respective values of negative and positive controls, depending on whether the enzymes were added without treatment of the compound, were determined, and IC50 was calculated based on the values.

BTK = target: T2, BTK (Homo sapiens, UniProt Q06187); test: BTK inhibitory activity, ADP-Glo + BTK Kinase enzyme system kit (Promega); assay type: biochemical; conditions: BTK enzyme 1 ng/uL, ATP 10 uM, 15 min preincubation, luminescence, duplicate
T2 construct: purchased Promega
T2 sequence (Q06187 whole entry): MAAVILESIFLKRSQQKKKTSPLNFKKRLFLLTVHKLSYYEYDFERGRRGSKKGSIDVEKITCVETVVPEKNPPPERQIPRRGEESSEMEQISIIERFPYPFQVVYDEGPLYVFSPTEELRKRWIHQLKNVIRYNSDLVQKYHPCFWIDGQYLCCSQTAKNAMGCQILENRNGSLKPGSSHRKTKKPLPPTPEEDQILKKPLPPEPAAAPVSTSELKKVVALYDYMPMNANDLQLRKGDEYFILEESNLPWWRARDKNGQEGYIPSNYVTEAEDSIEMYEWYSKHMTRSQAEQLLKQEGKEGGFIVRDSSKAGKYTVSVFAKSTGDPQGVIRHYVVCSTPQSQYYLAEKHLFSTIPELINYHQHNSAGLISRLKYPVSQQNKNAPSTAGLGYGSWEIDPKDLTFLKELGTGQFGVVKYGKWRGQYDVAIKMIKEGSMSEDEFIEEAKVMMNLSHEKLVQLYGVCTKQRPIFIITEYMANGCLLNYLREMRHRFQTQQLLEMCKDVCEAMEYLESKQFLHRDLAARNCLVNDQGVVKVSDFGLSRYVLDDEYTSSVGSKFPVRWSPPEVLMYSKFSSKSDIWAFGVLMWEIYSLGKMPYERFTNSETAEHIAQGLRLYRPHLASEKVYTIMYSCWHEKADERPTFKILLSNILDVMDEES
Protocol: as §1
as §2, with “against BTK” for “against ITK”, “using ‘ADP-Glo™+BTK” for “using ‘ADP-Glo™+ITK”, “of 10” for “of 25”

Row | SMILES | IC50 (ITK) | IC50 (BTK)
1 | C=CC(=O)N1CCCC(n2nc(-c3ccc(Oc4ccccc4)cc3)c3c(N)nccc32)C1 (stereo not drawn) [Example 1, 1-(3-(4-amino-3-(4-phenoxyphenyl)-1H-pyrazolo[4,3-c]pyridin-1-yl)piperidin-1-yl)prop-2-en-1-one] | 37.7 nM | 1.4 nM
2 | C#CC(=O)N1CCCC(n2nc(-c3ccc(Oc4ccccc4)cc3)c3c(N)nccc32)C1 (stereo not drawn) [Example 2, 1-(3-(4-amino-3-(4-phenoxyphenyl)-1H-pyrazolo[4,3-c]pyridin-1-yl)piperidin-1-yl)prop-2-yn-1-one] | 15.7 nM | 3.5 nM
3 | C=CC(=O)N1CCC(n2nc(-c3ccc(Oc4ccccc4)cc3)c3c(N)nccc32)CC1 [Example 3, 1-(4-(4-amino-3-(4-phenoxyphenyl)-1H-pyrazolo[4,3-c]pyridin-1-yl)piperidin-1-yl)prop-2-en-1-one] | > 1000 nM | 2.7 nM
4 | C#CC(=O)N1CCC(n2nc(-c3ccc(Oc4ccccc4)cc3)c3c(N)nccc32)CC1 [Example 4, 1-(4-(4-amino-3-(4-phenoxyphenyl)-1H-pyrazolo[4,3-c]pyridin-1-yl)piperidin-1-yl)prop-2-yn-1-one] | 277 nM | 5.5 nM
5 | C=CC(=O)N1CCCC(n2nc(-c3ccc(Oc4ccccc4)cc3)c3c(N)ncc(I)c32)C1 (stereo not drawn) [Example 5, 1-(3-(4-amino-7-iodo-3-(4-phenoxyphenyl)-1H-pyrazolo[4,3-c]pyridin-1-yl)piperidin-1-yl)prop-2-en-1-one] | 19.5 nM | 6.7 nM
6 | C=CC(=O)N1CCCC(n2nc(-c3ccc(Oc4ccccc4)cc3)c3c(N)ncc(Cc4ccccc4)c32)C1 (stereo not drawn) [Example 6, 1-(3-(4-amino-7-benzyl-3-(4-phenoxyphenyl)-1H-pyrazolo[4,3-c]pyridin-1-yl)piperidin-1-yl)prop-2-en-1-one] | 288 nM | 29.9 nM
7 | C=CC(=O)N1CCCC(n2nc(-c3ccc(Oc4ccccc4)cc3)c3c(N)ncc(-c4cnn(C)c4)c32)C1 (stereo not drawn) [Example 7, 1-(3-(4-amino-7-(1-methyl-1H-pyrazol-4-yl)-3-(4-phenoxyphenyl)-1H-pyrazolo[4,3-c]pyridin-1-yl)piperidin-1-yl)prop-2-en-1-one] | 36.4 nM | 3 nM
8 | C=CC(=O)N1CC2CC1C(n1nc(-c3ccc(Oc4ccccc4)cc3)c3c(N)ncc(-c4cnn(C)c4)c31)C2 (stereo not drawn) [Example 8, 1-(6-(4-amino-7-(1-methyl-1H-pyrazol-4-yl)-3-(4-phenoxyphenyl)-1H-pyrazolo[4,3-c]pyridin-1-yl)-2-azabicyclo[2.2.1]heptan-2-yl)prop-2-en-1-one] | > 500 nM | 7.3 nM
9 | C=CC(=O)N1CCCC(n2nc(-c3ccc(Oc4ccccc4)cc3)c3c(N)ncc(Cl)c32)C1 (stereo not drawn) [Example 9, 1-(3-(4-amino-7-chloro-3-(4-phenoxyphenyl)-1H-pyrazolo[4,3-c]pyridin-1-yl)piperidin-1-yl)prop-2-en-1-one] | 11.3 nM | 1.5 nM
10 | C=CC(=O)N1CCCC(n2nc(-c3ccc(Oc4ccccc4)cc3)c3c(N)ncc(Br)c32)C1 (stereo not drawn) [Example 10, 1-(3-(4-amino-7-bromo-3-(4-phenoxyphenyl)-1H-pyrazolo[4,3-c]pyridin-1-yl)piperidin-1-yl)prop-2-en-1-one] | 10.8 nM | 2.1 nM
11 | C=CC(=O)N1CCCC(n2nc(-c3ccc(Oc4ccccc4)cc3)c3c(N)ncc(-c4ccccc4)c32)C1 (stereo not drawn) [Example 11, 1-(3-(4-amino-3-(4-phenoxyphenyl)-7-phenyl-1H-pyrazolo[4,3-c]pyridin-1-yl)piperidin-1-yl)prop-2-en-1-one] | 224 nM | 11.4 nM
12 | C=CC(=O)N1CCC(n2nc(-c3ccc(Oc4ccccc4)cc3)c3c(N)ncc(I)c32)CC1 [Example 12, 1-(4-(4-amino-7-iodo-3-(4-phenoxyphenyl)-1H-pyrazolo[4,3-c]pyridin-1-yl)piperidin-1-yl)prop-2-en-1-one] | > 1000 nM | 7.7 nM
13 | C=CC(=O)N1CCC(n2nc(-c3ccc(Oc4ccccc4)cc3)c3c(N)ncc(-c4cnn(C)c4)c32)CC1 [Example 13, 1-(4-(4-amino-7-(1-methyl-1H-pyrazol-4-yl)-3-(4-phenoxyphenyl)-1H-pyrazolo[4,3-c]pyridin-1-yl)piperidin-1-yl)prop-2-en-1-one] | > 1000 nM | 5.1 nM
14 | C=CC(=O)N1CCCC(n2nc(-c3ccc(Oc4ccccc4)cc3)c3c(N)ncc(/C=C/c4ccc(F)cc4)c32)C1 (stereo not drawn) [Example 14, (E)-1-(3-(4-amino-7-(4-fluorostyryl)-3-(4-phenoxyphenyl)-1H-pyrazolo[4,3-c]pyridin-1-yl)piperidin-1-yl)prop-2-en-1-one] | 38.4 nM | 4.1 nM
15 | C=CC(=O)N1CCC(n2nc(-c3ccc(Oc4ccccc4)cc3)c3c(N)ncc(/C=C/c4ccc(F)cc4)c32)CC1 [Example 15, (E)-1-(4-(4-amino-7-(4-fluorostyryl)-3-(4-phenoxyphenyl)-1H-pyrazolo[4,3-c]pyridin-1-yl)piperidin-1-yl)prop-2-en-1-one] | > 500 nM | 3.7 nM
16 | C=CC(=O)N1CCC[C@@H](n2nc(-c3ccc(Oc4ccccc4)cc3)c3c(N)ncc(I)c32)C1 [Example 16, (R)-1-(3-(4-amino-7-iodo-3-(4-phenoxyphenyl)-1H-pyrazolo[4,3-c]pyridin-1-yl)piperidin-1-yl)prop-2-en-1-one] | 2.7 nM | 1 nM
17 | C=CC(=O)N1CCC[C@@H](n2nc(-c3ccc(C(=O)Nc4ccccn4)cc3)c3c(N)nccc32)C1 [Example 18, (R)-4-(1-(1-acryloylpiperidin-3-yl)-4-amino-1H-pyrazolo[4,3-c]pyridin-3-yl)-N-(pyridin-2-yl)benzamide] | 26.4 nM | 1 nM
18 | C=CC(=O)N1CCC[C@@H](n2nc(-c3ccc(C(=O)Nc4ccccn4)cc3)c3c(N)ncc(Cl)c32)C1 [Example 19, (R)-4-(1-(1-acryloylpiperidin-3-yl)-4-amino-7-chloro-1H-pyrazolo[4,3-c]pyridin-3-yl)-N-(pyridin-2-yl)benzamide] | 7.8 nM | 1.7 nM
19 | C=CC(=O)N1CCC[C@@H](n2nc(-c3ccc(C(=O)Nc4ccccn4)cc3)c3c(N)ncc(Br)c32)C1 [Example 20, (R)-4-(1-(1-acryloylpiperidin-3-yl)-4-amino-7-bromo-1H-pyrazolo[4,3-c]pyridin-3-yl)-N-(pyridin-2-yl)benzamide] | > 1000 nM | 15.2 nM
20 | C=CC(=O)N1CCC[C@@H](n2nc(-c3ccc(C(=O)Nc4ccccn4)cc3)c3c(N)ncc(I)c32)C1 [Example 21, (R)-4-(1-(1-acryloylpiperidin-3-yl)-4-amino-7-iodo-1H-pyrazolo[4,3-c]pyridin-3-yl)-N-(pyridin-2-yl)benzamide] | > 1000 nM | 10.7 nM
21 | C=CC(=O)N1CCC[C@@H](n2nc(-c3ccc(C(=O)Nc4ccccc4)cc3)c3c(N)nccc32)C1 [Example 22, (R)-4-(1-(1-acryloylpiperidin-3-yl)-4-amino-1H-pyrazolo[4,3-c]pyridin-3-yl)-N-phenyl benzamide] | 131 nM | 2.5 nM
22 | C=CC(=O)N1CCC[C@@H](n2nc(-c3ccc(C(=O)Nc4ccccc4)cc3)c3c(N)ncc(Cl)c32)C1 [Example 23, (R)-4-(1-(1-acryloylpiperidin-3-yl)-4-amino-7-chloro-1H-pyrazolo[4,3-c]pyridin-3-yl)-N-phenyl benzamide] | 48 nM | 1.2 nM
23 | C=CC(=O)N1CCC[C@@H](n2nc(-c3ccc(C(=O)Nc4ccccc4)cc3)c3c(N)ncc(Br)c32)C1 [Example 24, (R)-4-(1-(1-acryloylpiperidin-3-yl)-4-amino-7-bromo-1H-pyrazolo[4,3-c]pyridin-3-yl)-N-phenyl benzamide] | 36.8 nM | 1.2 nM
24 | C=CC(=O)N1CCC[C@@H](n2nc(-c3ccc(C(=O)Nc4ccccc4)cc3)c3c(N)ncc(I)c32)C1 [Example 25, (R)-4-(1-(1-acryloylpiperidin-3-yl)-4-amino-7-iodo-1H-pyrazolo[4,3-c]pyridin-3-yl)-N-phenyl benzamide] | 39.5 nM | 1.5 nM
